Laboratory results as given in paper PMC5038265 (Antimicrobial Agents and Chemotherapy, 2016).
≈ marks a conversion by molar mass, not a printed value. Like-named read-outs stand apart in the source and are kept apart here.

Tests used:
M. tuberculosis H37Rv = assay type: cell-based
[1] = system: multidrug-resistant M. tuberculosis isolates; experiment: microbe, parasite or virus in culture; assay type: cell-based; settings: for MIC: Mycobacterium tuberculosis, read-out: In vitro activity (MIC)

Row | SMILES | Resistance frequency at 4× MIC (M. tuberculosis H37Rv) | Resistance frequency at 10× MIC (M. tuberculosis H37Rv) | cross-resistance against multidrug-resistant isolates [1] | MIC ([1]; H37RV, M. tuberculosis H37Rv) | MIC [1] | In vitro activity (MIC) ([1]; listed as Cmp13)
1 | CCOc1ccc(Br)c2c1B(O)O[C@@H]2CN [Compound 14] | 4.6 × 10^−6 | 3.9 × 10^−6 | did not show any cross-resistance | 0.03 µg/mL (≈ 0.105 µM) | 0.03 µg/mL (≈ 0.105 µM) | –
2 | CCOc1ccc(Cl)c2c1B(O)O[C@@H]2CN [Compound 13] | – | – | did not show any cross-resistance | 0.015 µg/mL (≈ 0.0621 µM) | 0.015 µg/mL (≈ 0.0621 µM) | 0.030 µg/mL
3 | COc1c(N2C[C@@H]3CCCN[C@@H]3C2)c(F)cc2c(=O)c(C(=O)O)cn(C3CC3)c12 [Moxifloxacin, moxifloxacin, reference compound] | 1.7 × 10^−7 | 1.1 × 10^−8 | – | – | – | –
4 | NNC(=O)c1ccncc1 [Isoniazid, isoniazid, reference compound] | – | 1.8 × 10^−5 | – | 0.06 µg/mL (≈ 0.438 µM) | > 0.12 µg/mL | –
